Source: patent publication US7943551B2, “3-cyclopropyl-4-(3-thiobenzoyl) pyrazoles and their use as herbicides” (Bayer Cropscience AG, priority 2007, dated 2011)

Columns and labels:
Format in all cases: in vivo
[1] = system: Galium aparine; test: Post-emergence herbicidal action; conditions: 80 g of a.i./ha
Protocol: (§1) Seeds of mono- and dicotyledonous harmful plants are placed in sandy loam in cardboard pots, covered with soil and grown in the greenhouse under good growth conditions. Two to three weeks after sowing, the test plants are treated at the three-leaf stage. […] The visual scoring of the damage to the harmful plants is carried out 3-4 weeks after the treatment. Here, the compounds of Nos. 1-39, 1-40, 1-1382 and 1-2091 show an activity of at least 90% against Echinochloa crus galli. The compounds of Nos. 1-3, 1-44 and 1-2091 shown an activity of at least 90% against Abutilon theophrasti. The compounds of Nos. 1-39, 1-40 and 1-1382 show an activity of at least 90% against Veronica persica. The compounds of Nos. 1-3, 1-38, 1-39, 1-1406 and 1-1407 show an activity of at least 90% against Stellaria media.
(§2) The comparative tests of Tables 1 to 24 below show the superiority of the compounds according to the invention over the compounds known from the prior art.
(§3) • ABUTH Abutilon theophrasti ALOMY Alopecurus myosuroides • AMARE Amaranthus retroflexus AVEFA Avena fatua • CHEAL Chenopodium album ECHCG Echinochloa crus galli • GALAP Galium aparine LOLMU Lolium multiflorum • MATIN Matricaria inodora PHBPU Pharbitis purpureum • POLCO Fallopia convolvulus STEME Stellaria media • VERPE Veronica persica VIOTR Viola tricolor • XANST Xanthium strumarium Crop Plants • GLXMA Glycine max (soybeans) TRZAS Triticum aestivum (wheat) • ZEAMX Zea mays (corn)

[2] = system: Stellaria media; test: Post-emergence herbicidal action; conditions: Stellaria media, 80 g of a.i./ha, visual scoring 3-4 weeks after treatment, read-out: Herbicidal activity in % against STEME
Protocol: (§4) Seeds of mono- and dicotyledonous harmful plants are placed in sandy loam in cardboard pots, covered with soil and grown in the greenhouse under good growth conditions. Two to three weeks after sowing, the test plants are treated at the three-leaf stage. The compounds according to the invention, which are formulated as wettable powders or as emulsion concentrates, are sprayed at an application rate of 600 to 800 l of water/ha (converted) in a dosage of 80 grams per hectare onto the surface of the green plant parts. The visual scoring of the damage to the harmful plants is carried out 3-4 weeks after the treatment. Here, the compounds of Nos. 1-39, 1-40, 1-1382 and 1-2091 show an activity of at least 90% against Echinochloa crus galli. The compounds of Nos. 1-3, 1-44 and 1-2091 shown an activity of at least 90% against Abutilon theophrasti. The compounds of Nos. 1-39, 1-40 and 1-1382 show an activity of at least 90% against Veronica persica. The compounds of Nos. 1-3, 1-38, 1-39, 1-1406 and 1-1407 show an activity of at least 90% against Stellaria media.
as §2, §3

[3] = system: Matricaria inodora; test: Post-emergence herbicidal action; conditions: Tripleurospermum inodorum, 80 g of a.i./ha, read-out: Herbicidal activity in % against MATIN
Protocol: as §4, §2, §3

[4] = system: Xanthium strumarium; test: Post-emergence herbicidal action; conditions: 80 g of a.i./ha, read-out: Herbicidal activity in % against XANST
Protocol: as §4, §2, §3

[5] = system: Veronica persica; test: Post-emergence herbicidal action; conditions: 80 g of a.i./ha, visual scoring 3-4 weeks after treatment, read-out: Herbicidal activity in % against VERPE
Protocol: as §4, §2, §3

[6] = system: Fallopia convolvulus; test: Post-emergence herbicidal action; conditions: 80 g of a.i./ha
Protocol: as §4, §2, §3

[7] = system: Pharbitis purpureum; test: Post-emergence herbicidal action; conditions: 80 g of a.i./ha
Protocol: as §4, §2, §3

[8] = system: Viola tricolor; test: Post-emergence herbicidal action; conditions: 80 g of a.i./ha, read-out: Herbicidal activity in % against VIOTR
Protocol: as §4, §2, §3

[9] = system: Amaranthus retroflexus; test: Pre-emergence herbicidal action
From the text: (§5) Seeds or rhizome pieces of mono- and dicotyledonous harmful plants are placed in sandy loam in pots of a diameter of 9 to 13 cm and covered with soil. The herbicides, formulated as emulsifiable concentrates or dusts, are applied to the surface of the covering soil in the form of aqueous dispersions or suspensions or emulsions at an application rate of 300 to 800 l of water/ha (converted), […] For further cultivation of the plants, the pots are then kept in a greenhouse under optimum conditions. The visual scoring of the damage to the harmful plants is carried out 3-4 weeks after the treatment. Here, the compounds of Nos. 1-3, 1-15, 1-44 and 1-1407 show an activity of at least 90% against Echinochloa crus galli. The compounds of Nos. 1-15, 1-45, 1-1407 and 1-1419 show an activity of at least 90% against Abutilon theophrasti. The compounds of Nos. 1-3, 1-45, 1-1406 and 1-1418 show an activity of at least 90% against Amaranthus retroflexus. The compounds of Nos. 1-44, 1-1406, 1-1407 and 1-1419 show an activity of at least 90% against Stellaria media.
as §2, §3

[10] = system: Viola tricolor; test: Pre-emergence herbicidal action; conditions: 320 g of a.i./ha
From the text: as §5, §2, §3

[11] = system: Fallopia convolvulus; test: Pre-emergence herbicidal action; conditions: 320 g of a.i./ha
From the text: (§6) Seeds or rhizome pieces of mono- and dicotyledonous harmful plants are placed in sandy loam in pots of a diameter of 9 to 13 cm and covered with soil. The herbicides, formulated as emulsifiable concentrates or dusts, are applied to the surface of the covering soil in the form of aqueous dispersions or suspensions or emulsions at an application rate of 300 to 800 l of water/ha (converted), at a dosage of 320 grams per hectare. For further cultivation of the plants, the pots are then kept in a greenhouse under optimum conditions. The visual scoring of the damage to the harmful plants is carried out 3-4 weeks after the treatment. Here, the compounds of Nos. 1-3, 1-15, 1-44 and 1-1407 show an activity of at least 90% against Echinochloa crus galli. The compounds of Nos. 1-15, 1-45, 1-1407 and 1-1419 show an activity of at least 90% against Abutilon theophrasti. The compounds of Nos. 1-3, 1-45, 1-1406 and 1-1418 show an activity of at least 90% against Amaranthus retroflexus. The compounds of Nos. 1-44, 1-1406, 1-1407 and 1-1419 show an activity of at least 90% against Stellaria media.
as §2, §3

[12] = system: Matricaria inodora; test: Pre-emergence herbicidal action; conditions: Tripleurospermum inodorum, 320 g of a.i./ha, read-out: Herbicidal activity in % against MATIN
From the text: as §6, §2, §3

[13] = system: Abutilon theophrasti; test: Pre-emergence herbicidal action; conditions: 320 g of a.i./ha, visual scoring 3-4 weeks after treatment
From the text: as §6, §2, §3

[14] = system: Stellaria media; test: Pre-emergence herbicidal action; conditions: 80 g of a.i./ha
From the text: as §5, §2, §3

[15] = system: Veronica persica; test: Pre-emergence herbicidal action; conditions: 80 g of a.i./ha
From the text: as §5, §2, §3

[16] = system: Pharbitis purpureum; test: Pre-emergence herbicidal action; conditions: 320 g of a.i./ha
From the text: as §6, §2, §3

[17] = system: Xanthium strumarium; test: Pre-emergence herbicidal action; conditions: 320 g of a.i./ha
From the text: as §6, §2, §3

[18] = system: Triticum aestivum (wheat); test: Post-emergence damage of crop plants; conditions: 80 g of a.i./ha, crop plant wheat
Protocol: as §1, §2, §3

[19] = 320 g of a.i./ha, visual scoring 3-4 weeks after treatment

## Cn1nc(C2CC2)c(C(=O)c2ccc(Cl)c(S(C)(=O)=O)c2Cl)c1O [drawing 58, reference compound]
[1]
  Herbicidal activity in % against GALAP: 40%
[2]
  pest or weed control at 80 g/ha: 80%
[3]
  pest or weed control at 80 g/ha: 0%
[4]
  pest or weed control at 80 g/ha: 70%
[5]
  pest or weed control at 80 g/ha: 60%

## CCOCCSc1c(S(C)(=O)=O)ccc(C(=O)c2c(C3CC3)nn(C)c2O)c1C
[6]
  Herbicidal activity in % against POLCO: 70%
[7]
  Herbicidal activity in % against PHBPU: 60%
[8]
  pest or weed control at 80 g/ha: 80%

## COCCSc1c(S(C)(=O)=O)ccc(C(=O)c2c(C3CC3)nn(C)c2O)c1Cl [drawing 23]
[9]; [19]
  Herbicidal activity in % against AMARE: 100%
[10]
  Herbicidal activity in % against VIOTR: 100%
[11]
  Herbicidal activity in % against POLCO: 50%
[12]
  pest or weed control at 320 g/ha: 60%
[13]
  Herbicidal activity in % against ABUTH: 100%

## CSc1c(Cl)ccc(C(=O)c2c(C3CC3)nn(C)c2O)c1C [reference compound]
[14]
  Herbicidal activity in % against STEME: 80%
[15]
  Herbicidal activity in % against VERPE: 50%
[9]; 80 g of a.i./ha
  Herbicidal activity in % against AMARE: 70%

## COCCS(=O)(=O)c1c(S(C)(=O)=O)ccc(C(=O)c2c(C3CC3)nn(C)c2O)c1C [drawing 13]
[11]
  Herbicidal activity in % against POLCO: 60%
[16]
  Herbicidal activity in % against PHBPU: 60%
[17]
  Herbicidal activity in % against XANST: 70%

## CCSc1c(S(C)(=O)=O)ccc(C(=O)c2c(C3CC3)nn(C)c2O)c1Cl [drawing 24]
[9]; [19]
  Herbicidal activity in % against AMARE: 90%
[10]
  Herbicidal activity in % against VIOTR: 50%
[11]
  Herbicidal activity in % against POLCO: 0%
[12]
  pest or weed control at 320 g/ha: 0%
[13]
  Herbicidal activity in % against ABUTH: 70%

## Cc1c(C(=O)c2c(C3CC3)nn(C)c2O)ccc(S(C)(=O)=O)c1S(=O)(=O)CC1CC1 [drawing 15]
[11]
  Herbicidal activity in % against POLCO: 50%
[16]
  Herbicidal activity in % against PHBPU: 50%
[17]
  Herbicidal activity in % against XANST: 60%

## Cn1nc(C2CC2)c(C(=O)c2ccc(Cl)c(S(=O)(=O)CC3CC3)c2Cl)c1O [drawing 57]
[1]
  Herbicidal activity in % against GALAP: 70%
[2]
  pest or weed control at 80 g/ha: 100%
[3]
  pest or weed control at 80 g/ha: 50%
[4]
  pest or weed control at 80 g/ha: 90%
[5]
  pest or weed control at 80 g/ha: 90%

## Cc1c(C(=O)c2c(C3CC3)nn(C)c2O)ccc(S(C)(=O)=O)c1[S+](C)[O-] (stereo not shown) [reference compound]
[18]
  Damage to TRZAS: 50
[5]
  pest or weed control at 80 g/ha: 80%
[8]
  pest or weed control at 80 g/ha: 60%

## CSc1c(S(C)(=O)=O)ccc(C(=O)c2c(C3CC3)nn(C)c2O)c1C [drawing 32, reference compound]
[6]
  Herbicidal activity in % against POLCO: 50%
[7]
  Herbicidal activity in % against PHBPU: 40%
